In brackets after ≈: the same amount, converted by molar mass. Where two headings read alike, the source gives them in different places.

One data set relates to Aspergillus fumigatus. In words: Mouse model of invasive pulmonary aspergillosis. In kind it is in vivo, mice. To be noted: oral 20 mg/kg/day. On the procedure:
For survival study, 8-week-old CBA/J (Envigo) male mice were used. They were divided into sets of 10 mice for each treatment or control group. The day prior to infection, the mice were immunosuppressed by using triamcinolone acetonide (1 mg/mouse) subcutaneously ([40]). On day 0, mice were infected intranasally with 20 μl of a suspension containing 2 × 10^4 conidia of A. fumigatus strain Af293 and were treated through gavage with 20 mg/kg/day of BHBM, D13, or voriconazole (as a drug control) in a final volume of 100 μl of 30% PEG in saline buffer. The untreated control group mice received 100 μl of 30% PEG in saline buffer. Mice were fed ad libitum and were given 50% grapefruit juice in place of normal drinking water to avoid the liver metabolism of the drugs ([41]). Mice were monitored every day for discomfort and sacrificed subsequently.

The test system of data set [1] is Cryptococcus neoformans H99. The data set can be described thus: Synergistic assay (FIC), CN. It counts as cell-based. Here is the method:
(§1) Synergistic activity was assayed by calculating the fractional inhibitory index (FIC). Briefly, in a 96-well plate, drug A (D13) was serially diluted from 16 to 0.015 μg/ml (11 dilutions), whereas drug B (either fluconazole, amphotericin B, caspofungin, itraconazole, or voriconazole) was serially diluted from 12 to 0.19 μg/ml for fluconazole, 5 to 0.078 μg/ml for amphotericin B, or 8 to 0.007 μg/ml for caspofungin, itraconazole, or voriconazole (seven dilutions). The FIC was defined as (MIC combined/MIC drug A alone) + (MIC combined/MIC drug B alone). Synergism was categorized with the following scale: strongly synergistic effect, FIC of <0.5; synergistic effect, FIC of <1; additive effect, FIC of 1; no effect, FIC between 1 and 2; antagonistic effect, FIC of >2.

In data set [2] the test system is Aspergillus fumigatus 293. In words: Synergistic assay (FIC), AF. It counts as cell-based. Here is the method: as §1
Data set [3] can be described thus: in vitro. The following applies: human.
Description: (§3) The Caco-2 permeability studies were performed as follows. (i) For the preparation of Caco cells, 50-μl and 25-ml volumes of cell culture medium were added to each well of the Transwell insert and reservoir, respectively. The HTS Transwell plates then were incubated at 37°C, 5% CO2 for 1 h before cell seeding. […] (ii) For the preparation of stock solutions, 10 mM stock solutions of test compounds were prepared in DMSO. The stock solutions of positive controls were prepared in DMSO at a concentration of 10 mM. Digoxin and propranolol were used as control compounds in this assay. (iii) For the assessment of cell monolayer integrity, medium was removed from the reservoir and each Transwell insert and replaced with prewarmed fresh culture medium. Transepithelial electrical resistance (TEER) across the monolayer was measured using a Millicell epithelial volt-Ohm measuring system (Millipore, USA). The plate was returned to the incubator once the measurement was done. The TEER value was calculated according to the following equation: TEER measurement (ohms) × area of membrane (cm^2) = TEER value (ohm · cm^2). The TEER value should be greater than 230 Ω · cm^2, which indicates a well-qualified Caco-2 monolayer. (iv) The assay was performed as follows. The Caco-2 plate was removed from the incubator and washed twice with prewarmed Hanks' balanced salt solution (HBSS; with 10 mM HEPES, pH 7.4) and then incubated at 37°C for 30 min. The stock solutions of control compounds were diluted in DMSO to get 1 mM solutions and then diluted with HBSS (10 mM HEPES, pH 7.4) to get 5 μM working solutions. The stock solutions of the test compounds were diluted in DMSO to get 1 mM solutions and then diluted with HBSS (10 mM HEPES, pH 7.4) to get 5 μM working solutions. The final concentration of DMSO in the incubation system was 0.5%. To determine the rate of drug transport in the apical to basolateral direction, 75 μl of 5 μM working solution of test compound was added to the Transwell insert (apical compartment), and the wells in the receiver plate (basolateral compartment) were filled with 235 μl of HBSS (10 mM HEPES, pH 7.4). To determine the rate of drug transport in the basolateral to apical direction, 235 μl of 5 μM working solution of test compound was added to the receiver plate wells (basolateral compartment), and then the Transwell inserts (apical compartment) were filled with 75 μl of HBSS (10 mM HEPES, pH 7.4). Time zero samples were prepared by transferring 50 μl of 5 μM working solution to wells of the 96-deep-well plate, followed by the addition of 200 μl cold acetonitrile or methanol containing appropriate IS. The plates were incubated at 37°C for 2 h. At the end of the incubation, 50-μl samples from donor sides (apical compartment for AP→BL flux and basolateral compartment for BL→AP) and receiver sides (basolateral compartment for AP→BL flux and apical compartment for BL→AP) were transferred to wells of a new 96-well plate, followed by the addition of 4 volumes of cold acetonitrile or methanol containing appropriate IS. […] An aliquot of 100 μl of the supernatant was mixed with an appropriate volume of ultrapure water before LC-MS/MS analysis. To determine the Lucifer yellow leakage after a 2-h transport period, a stock solution of Lucifer yellow was prepared in ultrapure water and diluted with HBSS (10 mM HEPES, pH 7.4) to reach a final concentration of 100 μM. One hundred microliters of the Lucifer yellow solution was added to each Transwell insert (apical compartment), followed by filling the wells in the receiver plate (basolateral compartment) with 300 μl of HBSS (10 mM HEPES, pH 7.4). The plates were incubated at 37°C for 30 min, and 80-μl samples were removed directly from the apical and basolateral wells (using the basolateral access holes) and transferred to wells of new 96-well plates.
For the next data set, the system named is A549. The data set can be described thus: In vitro toxicity (MTT), A549. In kind it is cell-based. The following applies: Homo sapiens, cytotoxicity. On the procedure:
(§2) The murine macrophage cell line J774 and human cancer cell lines A549 and HepG2 were maintained in DMEM containing 10% fetal bovine serum (FBS) and 1% penicillin-streptomycin. At passage 7, 10^5 cells/well in DMEM containing 10% FBS were transferred into 96-well plates and cultured for 14 h for the cells to adhere to the wells. The compounds were added to the cells at concentrations ranging from 0.03 to 128 μg/ml. The wells without the compound served as controls. […] After 24 or 48 h, the supernatant was removed and 50 μl of 5-mg/ml 3-(4,5-dimethylthiazol-2-yl)-2,5-diphenyltetrazoliumbromide (MTT) solution in phosphate-buffered saline (PBS) was added to each well. The plates were incubated for an additional 4 h. The formazan crystal formed inside the cell was dissolved by adding 50 μl of dimethyl sulfoxide (DMSO). The optical density was measured at 570 nm.

In a further data set the test system is HepG2. In words: In vitro toxicity (MTT), HepG2. In kind it is cell-based. To be noted: Homo sapiens, cytotoxicity. Here is the method:
as §2

The subject of another data set is J774. The data set can be described thus: In vitro toxicity (MTT), J774. In kind it is cell-based, murine. The following applies: Mus musculus, cytotoxicity. On the procedure: as §2
In data set [4] the test system is C. neoformans. The data set can be described thus: In vitro killing assay. To be noted: for K100*: minimum concentration that kills 100% of C. neoformans cells in 48 h.
Description: C. neoformans cells from a culture grown overnight were washed in PBS and resuspended in YNB buffered with HEPES at pH 7.4. The cells were counted, and 2 × 10^4 cells were incubated with different concentrations of the drugs in a final volume of 10 ml with a final concentration of 0.5% DMSO. The tubes were then incubated at 37°C with 5% CO2 on a rotary shaker at 200 rpm. Aliquots were taken at the time points indicated and diluted, and 100-µl portions were plated onto YPD plates.
For data set [5], the system named is C. neoformans. In words: In vitro susceptibility testing (MIC80). It counts as cell-based, Cryptococcus neoformans. Here is the method: MICs were determined by following the methods of the Clinical and Laboratory Standards Institute (CLSI), with modifications. […] The compounds were serially diluted from 32 to 0.03 μg/ml in a 96-well plate. The inoculum was prepared as described in CLSI protocol M27A3 guidelines ([39]). […] The MICs were determined as the lowest concentration of the compound that inhibited 80% of growth compared to the control.

Data set [6] can be described thus: in vitro. To be noted: monkey.
Excerpt: A commercially available kit was used to examine permeability through the blood-brain barrier (BBB kit MBT-24; Pharmaco Cell Co. Ltd.). This kit allows us to perform a permeability assay using an in vitro reproduction of the blood-brain barrier using monkey brain. Briefly, in a 12-well plate there is a triple culture, with endothelial cells in the luminal part and perycites and astrocytes in the abluminal side connected by tight junctions. The luminal side of the well represents the blood side, whereas the abluminal side represents the brain side. The integrity of the blood-brain barrier is assessed by the measurement of TEER, which indicates the formation of tight junctions. To have an efficient system, the TEER should be >150 Ω cm^2. The kit is kept frozen at −80°C until it is ready to use. […] After that it takes 3 days for the cells to adjust, and then the plate can be used in 4 days for the experiment. For drug testing, after assessing the TEER, the drugs were added in the chosen medium at the desired concentrations and at different time points. At the end of each time point the TEER was measured to assess if the BBB was still intact. After that the medium was collected and subjected to MS to measure the concentration of the samples in the brain side and calculate the permeability value (Papp).
Another data set in a line: Caco-2 permeability. The following applies: human. For orientation: Caco-2 cells form a polarised layer with tight junctions and transporters.
In the next data set the test system is Candida albicans 3022. In words: Synergistic assay (FIC), CA Flu-R. In kind it is cell-based. The following applies: Candida albicans, 3022; CA Flu-R. On the procedure:
as §1

The test system of a further data set is Candida albicans A39. In words: Synergistic assay (FIC), CA. It counts as cell-based. Here is the method: as §1
Another data set deals with Candida krusei ATCC 6258. The data set can be described thus: Synergistic assay (FIC), CK Flu R2. In kind it is cell-based. To be noted: Pichia kudriavzevii, ATCC6258. Here is the method:
as §1

A further data set relates to Candida krusei. The data set can be described thus: Synergistic assay (FIC), CK Flu R1. In kind it is cell-based. To be noted: Pichia kudriavzevii. Here is the method: as §1
Data set [7] concerns C. neoformans. The data set can be described thus: Mouse model of cryptococcosis. In kind it is in vivo, mice.
The next data set concerns C. albicans. In words: Mouse model of invasive candidiasis. To be noted: oral gavage 20 mg/kg/day. It counts as in vivo, mice.
[8] abbreviates: Cryptococcus neoformans, ChemBridge compounds, Supplementary Table 1, read-out: MIC80.
Where [9] appears, read: lowest concentration inhibiting 80% of growth.

Description for Caco-2 permeability: as §3

Take `C[C@@H](c1ncncc1F)[C@](O)(Cn1cncn1)c1ccc(F)cc1F` [voriconazole, reference compound]: the “lung fungal burden (CFU) of surviving mice” value in the data set with Aspergillus fumigatus (at the endpoint, data not shown) is “showed evidence of colonies”. The mice that survived in the data set on Aspergillus fumigatus (immunosuppressed mice, after 15 days) is recorded as 40%. Besides, the MIC in [1] was found to be 4 µg/mL; in [2], 1 µg/mL.
In the case of `C[C@@H]1[C@H](O)[C@@H](C)/C=C/C=C/C=C/C=C/C=C/C=C/C=C/[C@H](O[C@@H]2O[C@H](C)[C@@H](O)[C@H](N)[C@@H]2O)C[C@@H]2O[C@](O)(C[C@@H](O)C[C@@H](O)[C@H](O)CC[C@@H](O)C[C@@H](O)CC(=O)O[C@H]1C)C[C@H](O)[C@H]2C(=O)O` [AB, amphotericin B], in data set [1], the MIC was 0.25 µg/mL.
On to `CC(C)NCC(O)COc1cccc2ccccc12` (stereo not shown) [Propranolol], for which, in the data set “in vitro [3]” (Caco-2, pH 7.4), the Papp A→B at 2 h, 5 μM amounted to 34.4 ×10⁻⁶ cm/s; the Papp B→A at 2 h, 5 μM was 19.5 ×10⁻⁶ cm/s; the efflux ratio at 2 h, 5 μM was 0.57. The compound also displayed a recovery at 2 h, 5 μM in the data set “in vitro [3]” (Caco-2, pH 7.4, Recovery AP→BL) of 90.7%. The compound further had a recovery at 2 h, 5 μM in “in vitro [3]” (Caco-2, pH 7.4, Recovery BL→AP) of 95.5%.
In the case of `O=C(N/N=C/c1cc(Br)ccc1O)c1cccc(Br)c1` [D2], the IC50 with A549, with HepG2 and with J774 was 16 µg/mL (≈ 40.2 µM) throughout. In addition, the “K100*” value in the data set with C. neoformans [4] amounted to 0.12 µg/mL. For the same compound, the MIC80 in the data set on C. neoformans [5] (setting [8]) and against C. neoformans [5] (setting [9]) was 0.25 µg/mL (≈ 0.628 µM) each time.
In the data set “in vitro [6]”, `Cn1c(=O)c2c(ncn2C)n(C)c1=O` [Caffeine, reference compound] had a Papp at 5 min of 20 ×10⁻⁶ cm/s, an apparent permeability (Papp) at 15 min of 25 ×10⁻⁶ cm/s and a Papp at 30 min of 25 ×10⁻⁶ cm/s.
Regarding `C[C@H]1O[C@@H](O[C@H]2[C@@H](O)C[C@H](O[C@H]3[C@@H](O)C[C@H](O[C@H]4CC[C@@]5(C)[C@H](CC[C@@H]6[C@@H]5C[C@@H](O)[C@]5(C)[C@@H](C7=CC(=O)OC7)CC[C@]65O)C4)O[C@@H]3C)O[C@@H]2C)C[C@H](O)[C@@H]1O` [Digoxin, reference compound], in the data set “Caco-2 permeability” (Caco-2, pH 7.4), the Papp A→B at 2 h, 5 μM was 0.61 ×10⁻⁶ cm/s and the Papp B→A at 2 h, 5 μM turned out to be 20.2 ×10⁻⁶ cm/s. The efflux ratio at 2 h, 5 μM in the data set “Caco-2 permeability” (Caco-2, pH 7.4, Efflux ratio) came out at 33.2. This compound displayed a recovery at 2 h, 5 μM in “Caco-2 permeability” (Caco-2, pH 7.4, Recovery AP→BL) of 82.7%. Besides, the recovery at 2 h, 5 μM in the data set “Caco-2 permeability” (Caco-2, pH 7.4, Recovery BL→AP) is 95.6%.
`CC[C@H](C)C[C@H](C)CCCCCCCCC(=O)N[C@H]1C[C@@H](O)[C@@H](NCCN)NC(=O)[C@@H]2[C@@H](O)CCN2C(=O)[C@H]([C@H](O)CCN)NC(=O)[C@H]([C@H](O)[C@@H](O)c2ccc(O)cc2)NC(=O)[C@@H]2C[C@@H](O)CN2C(=O)[C@H]([C@@H](C)O)NC1=O` [Caspo, capsofungin]: the MIC in the data set on Candida albicans 3022 was found to be 0.06 µg/mL; with Candida albicans A39 it was 0.12 µg/mL; in the data set with Candida krusei ATCC 6258 it was 1 µg/mL; in the data set on Candida krusei, 1 µg/mL.
Turning to `CCC(C)n1ncn(-c2ccc(N3CCN(c4ccc(OCC5COC(Cn6cncn6)(c6ccc(Cl)cc6Cl)O5)cc4)CC3)cc2)c1=O` (stereo not shown) [Itra, itraconazole], the MIC in the data set on Candida albicans 3022 amounted to 2 µg/mL; in data set [1], 0.06 µg/mL; with Candida albicans A39 it was 0.06 µg/mL; in the data set with Candida krusei ATCC 6258, 1 µg/mL; in the data set with Candida krusei, 1 µg/mL; in data set [2], 0.25 µg/mL.
For the compound `O=C(N/N=C/c1cc(Br)ccc1O)c1cc(Br)cc(Br)c1O` [D17], the IC50 in the data set on A549, with HepG2 and in the data set with J774 was 16 µg/mL (≈ 32.5 µM) throughout. Further, the “K100*” value in the data set on C. neoformans [4] turned out to be 0.5 µg/mL. In addition, the “time to kill C. neoformans” value in the data set with C. neoformans [4] (time-kill assay) came out at 6 h. Further, the MIC80 in the data set with C. neoformans [5] (setting [8]) and against C. neoformans [5] (setting [9]) was 0.5 µg/mL (≈ 1.01 µM) throughout.
Turning to `OC(Cn1cncn1)(Cn1cncn1)c1ccc(F)cc1F` [fluconazole], the MIC in the data set on Candida albicans 3022 is more than 16 µg/mL; in data set [1], 2.5 µg/mL; in the data set with Candida albicans A39, 2.5 µg/mL; with Candida krusei ATCC 6258, more than 16 µg/mL; with Candida krusei, 16 µg/mL; in data set [2] it was more than 10 µg/mL. Further, the mice that survived with C. neoformans [7] (i.p. 1.2 mg/kg/day, treatment immediately after intranasal infection, 40 days) is on record as 60%. The “mice that survived until the end of the experiment” value turned out to be 20% with C. neoformans [7] (i.p. 1.2 mg/kg/day, treatment started 5 days after infection) and 20% with C. neoformans [7] (oral 20 mg/kg/day starting the day of infection). Also, the “CFU in brains and lungs” value in the data set on C. neoformans [7] (oral 20 mg/kg/day, 32 days posttreatment, data not shown) is “numerous colonies in the lungs and brain”. Further, the “time within which mice died” value in the data set with C. albicans was not above 12 days.

The term MIC denotes the least concentration at which growth counts as inhibited. For orientation: Papp A→B means the apparent permeability from the apical to the basolateral side of a cell layer. A word on the Papp B→A: it is the apparent permeability from the basolateral to the apical side of a cell layer. The efflux ratio is a quotient of directional permeabilities that is used to spot active efflux. One may read the IC50 as the concentration at which inhibition is half-maximal. As usually defined, the MIC80 is an inhibitory concentration at the 80% level, which refers to growth in some studies and to a panel of isolates in others. As usually defined, the Papp is the rate of passage across a membrane or cell layer, normalised by area and donor concentration.
